B1: Vantictumab: a therapeutic antibody which binds 5/10 Frizzled receptors (anti-Wnt) (antibody, chains of the INN, looked up, V domains shown)
VH: EVQLVESGGGLVQPGGSLRLSCAASGFTFSHYTLSWVRQAPGKGLEWVSVISGDGSYTYYADSVKGRFTISSDNSKNTLYLQMNSLRAEDTAVYYCARNFIKYVFANWGQGTLVTVSS
VL: DIELTQPPSVSVAPGQTARISCSGDNIGSFYVHWYQQKPGQAPVLVIYDKSNRPSGIPERFSGSNSGNTATLTISGTQAEDEADYYCQSYANTLSLVFGGGTKLTVL

Legend:
[1] = test system: MDA-MB-231 Luc2-TdTomato cells; test: Spontaneous human breast cancer metastasis to human bone implants in NOD SCID mice; format: in vivo
Protocol: To model human breast cancer metastasis to human bone implants two human bone discs were implanted subcutaneously into 10-week old female NOD SCID mice (n=10/group) under isofluorane anaesthetic. Mice received an injection of 0.003 mg vetergesic and Septrin was added to the drinking water for 1 week following bone implantation. Mice were left for 4 weeks before injecting 1×10^5 MDA-MB-231 Luc2-TdTomato, MCF7 Luc2 or T47D Luc2 cells in 20% Martigel/79% PBS/1% […] into the two hind mammary fat pads. Primary tumor growth and development of metastases was monitored weekly using an IVIS […] system (Caliper Life Sciences) following sub-cutaneous injection of 30 mg/ml D-luciferin (Invitrogen). On termination of experiments mammary tumors, circulating tumor cells, serum and bone metastases were resected. RNA was processed for downstream analysis by real time PCR, and cell lysates were taken for protein analysis and whole tissue for histology as previously described (Nutter et al., 2014; Ottewell et al., 2014a).
(§1) Tumor cells, serum, and bone were subsequently resected for downstream analysis.
Whole blood was centrifuged at 10,000 g for 5 minutes and the serum removed for ELISA assays. The cell pellet was re-suspended in 5 ml of FSM lysis solution (Sigma-Aldrich, Pool, UK) to lyse red blood cells. Remaining cells were re-pelleted, washed 3x in PBS and re-suspended in a solution of PBS/10% FCS. Samples from 10 mice per group were pooled prior to isolation of TdTomato positive tumor cells using a MoFlow High performance cell sorter (Beckman Coulter, Cambridge UK) with the […] laser line from a Coherent I-90C tenable argon ion (Coherent, Santa Clara, CA). TdTomato fluorescence was detected by a 555LP dichroic long pass and a 580/30 nm band pass filter. Acquisition and analysis of cells was performed using Summit 4.3 software. Following sorting cells were immediately placed in RNA protect cell reagent (Ambion, Paisley, Renfrew, UK) and stored at -80° C. before RNA extraction.

[2] = test system: patient-derived breast cancer cells; test: Breast CSC mammosphere colony formation after exposure to human bone marrow in vitro; format: cell-based
Source text: (§2) Dissemination of tumour cells to bone marrow is an early event in breast cancer, however these cells may lie dormant in the bone environment for many years prior to eventual colonisation. Treatment for bone metastases is not curative, therefore new adjuvant therapies preventing disseminated cells from becoming metastatic lesions may be an effective therapeutic option to improve clinical outcomes. There is evidence that cancer stemcells (CSCs) within breast tumours are the cells capable of metastasis; however, little is known about which bone marrow-derived factors support dormant CSC survival and eventual colonisation. Using in vitro culture of primary human bone marrow and patient-derived breast cancer cells, and in vivo metastasis models of human breast cancer cells implanted into mice, we investigated signalling pathways regulating CSC colony formation in bone.
(§3) Dissemination of tumour cells to bone marrow is an early event in breast cancer, but these cells may lie dormant in the bone environment for many years before the development of clinical bone metastases. There is evidence that cancer stem cells (CSCs) within breast tumours are the cells capable of metastasis, but the effect of the bone environment on the regulation of CSCs has not been investigated. […] CSC activity following isolation from the bone environment was measured using mammosphere colony formation.

[3] = test system: vasculature in trabecular bone; test: Blocking IL-1β signalling: blood vessels in the bone microenvironment of mice; format: in vivo
Protocol: Vasculature was visualised following CD34 and endomucin immunohistochemistry and the concentration of vascular endothelial growth factor (VEGF) and endothelin-1 in serum and/or bone marrow was determined by ELISA. Effects on bone volume were measured by Micro computed tomography (uCT).
as §1

[4] = Gevokizumab clinical pharmacokinetics; format: in vivo, human
hsCRP = test: Gevokizumab: hsCRP change in type 2 diabetes patients; format: in vivo, human; conditions: top dose 0.3 mg/kg (~20 mg) Q4W
[5] = test system: human breast cancer cells; test: Spontaneous bone metastasis of human breast cancer cells implanted into mice; conditions: mouse
Source text: as §2, §3

Row | Molecule | mice with metastasis detected in human bone implants ([1]; 1 mg/kg IL-1Ra daily or 10 mg/kg canakinumab s.c. every 14 days from day 7, control 7 out of 10) | bone metastasis, photons/sec mean values ([1]; Placebo 3.60E+06) | size of bone metastases ([1]; compared with control group) | bone turnover and neovascularisation ([1]; mouse, in vivo) | onset of breast cancer metastasis in human bone ([1]; mouse, in vivo) | primary tumour growth ([1]; murine model of spontaneous human breast cancer metastasis to human bone) | tumor cells counted in whole blood ([1]; placebo 108 tumor cells/ml) | induction of CSC activity by the bone marrow in vitro [2] | average length of new blood vessels ([3]; 1 mg/kg for 21/31 days) | endothelin 1 and VEGF in the bone marrow (ELISA) ([3]; compared with control) | decrease in VEGF concentration ([3]; mice treated with 1 mg/kg for 21 days) | decrease in the concentration of endothelin-1 ([3]; mice treated with 1 mg/kg for 31 days) | average length of CD34^+ blood vessels in trabecular bone ([3]; p < 0.01 vs control) | Bioavailability ([4]; administered subcutaneously) | half-life ([4]; human, in vivo) | reduction of hsCRP (hsCRP) | spontaneous bone metastasis in vivo [5]
1 | Anakinra: IL-1 receptor antagonist, clinically available recombinant form of the receptor antagonist | 4 out of 10 | 4.83E+04 photons/sec | smaller than those detected in the control group | reduced bone turnover and neovascularisation | delayed onset of breast cancer metastasis in human bone | without affecting the development of primary breast cancer | 3 tumor cells/ml | reverses induction of CSC activity | downwards trend | reduced concentrations | 22% | 69% | reduced the average length of CD34^+ blood vessels |  |  |  | 
2 | gevokizumab: high-affinity, humanized monoclonal antibody of the IgG2 isotype to interleukin-1β; INN number 9310; allosteric inhibitor |  |  |  |  |  |  |  |  |  |  |  |  |  | about 56% | about 35 days | up to 45% | 
3 | B1 |  |  |  |  |  |  |  | reverses induction of CSC activity |  |  |  |  |  |  |  |  | prevents spontaneous bone metastasis

From US20230220063A1, “IL-1BETA BINDING ANTIBODIES FOR USE IN TREATING CANCER” (NOVARTIS AG, priority 2017, published 2023)
